Our source for the Ki and IC50 values is patent US5716929A (Vertex Pharmaceuticals, Inc., priority 1995, dated 1998).

What is called Ki is the equilibrium dissociation constant of an inhibitor or competing ligand from its target. For orientation: IC50 means the concentration needed to halve the response being measured. The low end stands for greater potency in that assay, the high end for weaker potency in that assay.

The target in test [1] is T1, interleukin-1β converting enzyme (ICE) (Homo sapiens, UniProt P29466).
T1 sequence (P29466 120-297 limits assumed): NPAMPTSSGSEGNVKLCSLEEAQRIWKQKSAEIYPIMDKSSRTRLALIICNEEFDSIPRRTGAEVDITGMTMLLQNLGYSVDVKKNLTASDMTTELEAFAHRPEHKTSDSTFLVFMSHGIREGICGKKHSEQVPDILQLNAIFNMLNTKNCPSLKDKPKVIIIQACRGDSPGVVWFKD
T1 sequence (P29466 317-404 limits assumed): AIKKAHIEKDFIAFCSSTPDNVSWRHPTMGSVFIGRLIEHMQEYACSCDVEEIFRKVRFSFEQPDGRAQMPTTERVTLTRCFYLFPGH
Nature of the test: Enzyme assay with fluorescent substrate (Acetyl-Tyr-Val-Ala-Asp-AMC). It counts as biochemical. The conditions noted are these: Example 2 table, read-out: Fluorescence Ki. The protocol:
2. Enzyme Assay with Fluorescent Substrate
This assay is run essentially according to Thornberry et al. (Nature 356: 768-774 (1992)), using substrate 17 referenced in that article. The substrate is: Acetyl-Tyr-Val-Ala-Asp-amino-4-methylcoumarin (AMC) (SEQ ID NO: 2). The following components are mixed: […]
The assay is run in a 96 well microtiter plate. Buffer and ICE are added to the wells. The components are left to incubate at 37° C. for 15 minutes in a temperature-controlled wellplate. After the 15 minute incubation, the reaction is started by adding substrate directly to the wells and the reaction is monitored @37° C. for 30 minutes by following the release of the AMC fluorophore using an excitation wavelength for 380 nm and an emission wavelength of 460 nm. A linear fit of the data for each well is performed and a rate is determined in fluorescence units per second.
(§1) For determination of enzyme inhibition constants (Ki) or the mode of inhibition (competitive, uncompetitive or noncompetitive), the rate data determined in the enzyme assays at varying inhibitor concentrations are computer-fit to standard enzyme kinetic equations (see I. H. Segel, Enzyme Kinetics, Wiley-Interscience, 1975).

The target in test [2] is T1, interleukin-1β converting enzyme (ICE). Nature of the test: Enzyme assay with UV-visible substrate (Succinyl-Tyr-Val-Ala-Asp-pNitroanilide). It counts as biochemical. The protocol:
1. Enzyme assay with UV-visible substrate
This assay is run using an Succinyl-Tyr-Val-Ala-Asp-pNitroanilide substrate (SEQ ID NO: 1). Synthesis of analogous substrates is described by L. A. Reiter (Int. J. Peptide Protein Res. 43, 87-96 (1994)). The assay mixture contains: […]
The visible ICE assay is run in a 96-well microtiter plate. Buffer, ICE and DMSO (if inhibitor is present) are added to the wells in the order listed. The components are left to incubate at room temperature for 15 minutes starting at the time that all components are present in all wells. The microtiter plate reader is set to incubate at 37° C. After the 15 minute incubation, substrate is added directly to the wells and the reaction is monitored by following the release of the chromophore (pNA) at 405-603 nm at 37° C. for 20 minutes. A linear fit of the data is performed and the rate is calculated in mOD/min. DMSO is only present during experiments involving inhibitors, buffer is used to make up the volume to 100 μl in the other experiments.
as §1

Test [3] concerns mature IL-1β, Human Peripheral Blood Mononuclear Cells (PBMC). Nature of the test: Cell assay: IL-1β assay with human PBMC or enriched adherent mononuclear cells. In kind it is cell-based. As to conditions: LPS-stimulated cells, mature IL-1β by ELISA. The text has this: IL-1β Assay with a Mixed Population of Human Peripheral Blood Mononuclear Cells (PBMC) or Enriched Adherent Mononuclear Cells
Processing of pre-IL-1β by ICE can be measured in cell culture using a variety of cell sources. Human PBMC obtained from healthy donors provides a mixed population of lymphocyte subtypes and mononuclear cells that produce a spectrum of interleukins and cytokines in response to many classes of physiological stimulators. Adherent mononuclear cells from PBMC provides an enriched source of normal monocytes for selective studies of cytokine production by activated cells.
An initial dilution series of test compound in DMSO or ethanol is prepared, with a subsequent dilution into RPMI-10% FBS media (containing 2 mM L-glutamine, 10 mM HEPES, 50 U and 50 ug/ml pen/strep) respectively to yield drugs at 4× the final test concentration containing 0.4% DMSO or 0.4% ethanol. The final concentration of DMSO is 0.1% for all drug dilutions. A concentration titration which brackets the apparent Ki for a test compound determined in an ICE inhibition assay is generally used for the primary compound screen.
We generally test 5-6 compound dilutions and have performed the cellular component of the assay in duplicate, with duplicate ELISA determinations on each cell culture supernatant.
Buffy coat cells isolated from one pint human blood (yielding 40-45 ml final volume plasma plus cells) are diluted with media to 80 ml and LeukoPREP separation tubes (Becton Dickinson) are each overlaid with 10 ml of cell suspension. After 15 min centrifugation at 1500-1800×g, the plasma/media layer is aspirated and then the mononuclear cell layer is collected with a Pasteur pipette and transferred to a 15 ml conical centrifuge tube (Corning). Media is added to bring the volume to 15 ml, gently mix the cells by inversion and centrifuge at 300×g for 15 min. Resuspend the PBMC pellet in a small volume of media, count cells and adjust to 6×10^6 cells/ml.
For the cellular assay, add 1.0 ml of the cell suspension to each well of a 24-well flat bottom tissue culture plate (Corning), 0.5 ml test compound dilution and 0.5 ml LPS solution (Sigma #L-3012; 20 ng/ml solution prepared in complete RPMI media; final LPS concentration 5 ng/ml). The 0.5 ml additions of test compound and LPS are usually sufficient to mix the contents of the wells. Three control mixtures are run per experiment, with either LPS alone, solvent vehicle control, and/or additional media to adjust the final culture volume to 2.0 ml. The cell cultures are incubated for 16-18 hr at 37° C. in the presence of 5% CO2.
At the end of the incubation period, cells are harvested and transferred to 15 ml conical centrifuge tubes. After centrifugation for 10 min at 200×g, supernatants are harvested and transferred to 1.5 ml Eppendorf tubes. It may be noted that the cell pellet may be utilized for a biochemical evaluation of pre-IL-1β and/or mature IL-1β content in cytosol extracts by western blotting or ELISA with pre-IL-1β specific antisera.
PBMC are isolated and prepared as described above. Media (1.0 ml) is first added to wells followed by 0.5 ml of the PBMC suspension. After a one hour incubation, plates are gently shaken and nonadherent cells aspirated from each well. Wells are then gently washed three times with 1.0 ml of media and final resuspended in 1.0 ml media. The enrichment for adherent cells generally yields 2.5-3.0×10^5 cells per well. […]
Background: An ELISA detects its analyte on a solid surface through an enzyme-linked reagent.

Where [4] appears, read: Homo sapiens, PBMC, Example 2 table.

As to `CC(=O)N[C@@H](Cc1ccc(O)cc1)C(=O)N[C@H](C(=O)N1CC(OCc2ccccc2)C[C@H]1C(=O)NC(C=O)CC(=O)O)C(C)C` (stereo partly shown) [Compound K, N-[N-Acetyl-tyrosinyl-valinyl-(4-benzyloxy)prolinyl]-3-amino-4-oxobutanoicacid], the Ki in test [1] stood at 2 nM; in test [2] (Example 2 table), 10 nM. This compound displayed an IC50 in test [3] (Example 2 table) of 2 to 11 µM.
In turn, `CC(=O)N[C@@H](Cc1ccc(O)cc1)C(=O)N[C@H](C(=O)N1CC(O)C[C@H]1C(=O)NC(C=O)CC(=O)O)C(C)C` (stereo partly shown) [J, N-[N-Acetyl-tyrosinyl-valinyl-(4-hydroxyprolinyl)]-3-amino-4-oxobutanoicacid] yielded a 50% inhibitory concentration (IC50) in test [3] (setting [4]) of 5 to 7 µM.
As to “N-(N-Acetyl-tyrosinyl-valinyl-pipecolyl)-3-amino-4-oxobutanoic acid [H]”, the values for the Ki in test [1] and in test [2] (Example 2 table) were 4.7 nM and 23 nM, respectively. The compound also came in with an IC50 in test [3] (Example 2 table) of 6 to 11 µM.
For the compound `CC(=O)N[C@@H](Cc1ccc(O)cc1)C(=O)N[C@H](C(=O)N1CC(Oc2ccccc2)C[C@H]1C(=O)NC(C=O)CC(=O)O)C(C)C` (stereo partly shown) [I, N-(N-Acetyl-tyrosinyl-valinyl-(4-phenoxyprolinyl))-3-amino-4-oxobutanoicacid], in test [3] (setting [4]), the IC50 was 2.6 µM. This lies in the single-digit micromolar range.
Compound `COc1cccc2nc(C(=O)[C@H](CC(=O)O)NC(=O)[C@@H]3C[C@H](Oc4ccccc4)CN3C(=O)[C@@H](NC(C)=O)C(C)C)oc12` [Compound 86, N-Acetyl-(S)-valinyl-(4-(S)-phenoxy)prolinyl-3(S)-amino-4-(7-methoxybenzoxazol-2-yl)-4-oxo-butanoic acid] gave a Ki in test [2] (Example 6 table) of 175 nM. The IC50 in test [3] (Example 6 table) was 4 µM.
